Source: patent US12349708B2, “Use and methods of 1,3-propanediol to improve taste and/or off-taste qualities” (Primient Covation LLC, priority 2019, dated 2025)
“Also recorded” adds a separate entry of the source.

System: experienced and trained panelist
Test: Sensorial description of energy drinks and additive solutions with propylene glycol or biologically-produced 1,3-propanediol (multi-sip-and-swallow taste method);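 also: propylene glycol or 1,3-propanediol added at 0.01, 0.1 or 1.0%, tasted by multi-sip-and-swallow in duplicate, compared with matching controls lacking either additive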
Details: for Sensorial Description: RT; for increase of sweetness equivalent: with prior DW sipping; for concentration yielding the most consistent reduction in unpleasant taste/masking off-tastes: in vivo; for taste quality of 5-hour ENERGY shots and Bang energy drink: included in 5-hour ENERGY shots and Bang energy drink; for overall tasting quality vs propylene glycol: three additive solutions; for tasting qualities vs propylene glycol: two additive malic acid and sucralose solutions
[1] = PG samples tasted before PDO samples

Structure (SMILES): OCCCO [PDO, 1,3-propanediol]
- Sensorial Description (0.01% PG or PDO in 79 ppm sucralose (5% SE) in distilled water): Same as 0.01% PG results.
- Sensorial Description (0.01% PG or PDO in 2,000 ppm sucralose in distilled water): (small sip): Similar results as 0.01% PG. Direct
- Sensorial Description (0.01% PG or PDO in 3,338 ppm caffeine in distilled water (caffeine shot)): (small sip): similar to Control #65.
- Sensorial Description (0.01% PG or PDO in 10,500 ppm malic acid and 2,000 ppm sucralose in distilled water): Little to no sweetness and sourness, similar
- Sensorial Description (0.01% PG or PDO in 10,500 ppm malic acid, 2,000 ppm sucralose, 3,338 ppm caffeine in distilled water): Significantly less sweet intensity, less and different
- Sensorial Description (0.01% PG or PDO in B vitamins at 5-hour Energy shot concentrations in distilled water): Slightly different from Control (upfront smooth-like)
- Sensorial Description (0.01% PG or PDO in Bang energy drink): Still slow onset sourness, less sweetness (more
- Sensorial Description (0.01% PG or PDO in Berry flavor in distilled water): No dry taste effect, slight less flavor.
- Sensorial Description (0.01% PG or PDO in Monster Energy Zero Ultra): Significantly less off-taste, still strong sweetness and
- Sensorial Description (0.01% PG or PDO in Monster Energy drink): Note: Loss of carbonation. No carbonic acid off-
- Sensorial Description (0.01% PG or PDO in NOS High Performance Energy Drink): Less Sweet, smoother, no off-taste, significant less
- Sensorial Description (0.01% PG or PDO in Orange 5-hour ENERGY shot (5HE Orange)): Not significantly less flavor, tasted better than
- Sensorial Description (0.01% PG or PDO in Red Bull Energy Drink): Better taste overall and less off taste than 0.01% PG,
- Sensorial Description (0.01% PG or PDO in Red Bull Sugar Free): Much better overall tasting quality, significantly less
- Sensorial Description (0.01% PG or PDO in Rockstar Original energy drink): Slight off-flavor, significantly less sourness, still
- increase of sweetness equivalent (0.01% in 2,000 ppm sucralose): ~45% more SE.
- Sensorial Description (0.1% PG or PDO in 238 ppm sucralose (10% SE) in distilled water): Still slightly more sweetness, thinner but still ~9-
- Sensorial Description (0.1% PG or PDO in 338 ppm caffeine in distilled water (caffeine drink)): Stronger bitterness intensity to medium level.
- Sensorial Description (0.1% PG or PDO in 2,000 ppm sucralose in distilled water): (small sip): Significantly improved sugar-like tasting
- Sensorial Description (0.1% PG or PDO in 3,338 ppm caffeine in distilled water (caffeine shot)): (small sip): similar to Control #65.
- Sensorial Description (0.1% PG or PDO in Bang energy drink): Significantly less sourness and sweetness, smoother,
- Sensorial Description (0.1% PG or PDO in Berry 5-hour ENERGY shot (5HE Berry)): Significantly better tasting quality than 0.1% PG,
- Sensorial Description (0.1% PG or PDO in Berry flavor in distilled water): Less dry than 0.01% PDO, slight less flavor.
- Sensorial Description (0.1% PG or PDO in Monster Energy Zero Ultra): More suitable tasting quality (less than 1% but more
- Sensorial Description (0.1% PG or PDO in Monster Energy drink): Note: Loss of carbonation. Similar to 0.01% PDO,
- Sensorial Description (0.1% PG or PDO in Red Bull Energy Drink): Note: Significant loss of carbonation. Still slight-
- Sensorial Description (0.1% PG or PDO in Red Bull Sugar Free): Flatter than 0.01% PDO, low-med flavor, low-med
- increase of sweetness equivalent (0.1% in 2,000 ppm sucralose): ~45% more SE.
- taste effect at 1% (10,000 ppm) (1% / 1.0% (10,000 ppm) in the compositions studied, listed as biologically-produced 1,3-propanediol): sometimes imparted a smoke and/or off-flavor; also recorded: yielded no further improvement in taste perception
- Sensorial Description (1.0% PG or PDO in 79 ppm sucralose (5% SE) in distilled water): Significant off-flavor note, chemical-like note,
- Sensorial Description (1.0% PG or PDO in 238 ppm sucralose (10% SE) in distilled water): Off-flavor, thinner-like or chemical-like note,
- Sensorial Description (1.0% PG or PDO in 338 ppm caffeine in distilled water (caffeine drink)): Off-flavor taste, delayed onset of bitterness.
- Sensorial Description (1.0% PG or PDO in 2,000 ppm sucralose in distilled water): (small sip): off-flavor chemical-like note (plastic-
- Sensorial Description (1.0% PG or PDO in 3,338 ppm caffeine in distilled water (caffeine shot)): (small sip): similar to Control #65, slightly
- Sensorial Description (1.0% PG or PDO in 10,500 ppm malic acid and 2,000 ppm sucralose in distilled water): Weak off-flavor across the taste, similar qualities
- Sensorial Description (1.0% PG or PDO in 10,500 ppm malic acid in distilled water): No off-flavor for sure, however possible Invisible-
- Sensorial Description (1.0% PG or PDO in 10,500 ppm malic acid in distilled water, listed as biologically-produced 1,3-propanediol): did not present any expected off-flavor
- Sensorial Description (1.0% PG or PDO in 10,500 ppm malic acid, 2,000 ppm sucralose, 3,338 ppm caffeine in distilled water): Very weak off-flavor note, thinner sourness, less
- Sensorial Description (1.0% PG or PDO in B vitamins at 5-hour Energy shot concentrations in distilled water): Slight-medium off-flavor note,
- Sensorial Description (1.0% PG or PDO in Bang energy drink): Slight and low off-flavor at middle tasting time,
- Sensorial Description (1.0% PG or PDO in Berry flavor in distilled water): Moderate chemical-like off-flavor at later
- Sensorial Description (1.0% PG or PDO in Monster Energy Zero Ultra): Smoother, medium off flavor at middle tasting
- Sensorial Description (1.0% PG or PDO in Monster Energy drink): Note: Little carbonation. Significant undescribed
- Sensorial Description (1.0% PG or PDO in NOS High Performance Energy Drink): Off-flavor in middle taste, no or low sourness, not
- Sensorial Description (1.0% PG or PDO in Orange 5-hour ENERGY shot (5HE Orange)): Slight or faint off-flavor in background (non-
- Sensorial Description (1.0% PG or PDO in Red Bull Energy Drink): Note: significantly less or no carbonation. Significant
- reduction in unpleasant taste or masking of off-taste (2,000 ppm, 238 ppm, or 70 ppm sucralose in distilled water): No reduction in unpleasant taste, or masking of off-taste
- reduction of unpleasant taste / masking of bitterness (3,382 ppm or 338 ppm caffeine in distilled water): did not reduce the unpleasant taste, or mask the bitterness
- maximum useful concentration (across a broad range of food, beverage, and confection compositions): 0.5%
- taste modulation of B vitamins (aqueous B vitamins at concentrations comparable to 5-hour ENERGY shots): did not positively modulate
- modulation of berry flavor (berry flavor in distilled water): Neither biologically-produced 1,3-propanediol, nor propylene glycol modulated the flavor
- concentration yielding the most consistent reduction in unpleasant taste/masking off-tastes (listed as bioPDO): ca. 0.1%
- concentration yielding the most consistent reduction in unpleasant taste/masking off-tastes (listed as biologically-produced 1,3-propane diol): about 0.1%
- taste quality of 5-hour ENERGY shots and Bang energy drink (listed as Biologically-produced 1,3-propanediol): improved the taste quality
- taste quality of 5-hour ENERGY shots and Bang energy drink (listed as biologically-produced 1,3-propanediol): positive taste modulation effect of PDO
- taste modulation or sour masking (malic acid at 10,500 ppm in distilled water): no positive taste modulation or sour masking effect
- taste modulation of three additive solution (malic acid, sucralose and caffeine at 5-hour ENERGY concentrations in distilled water, compared to solution with propylene glycol): positive taste modulation, or a reduction of unpleasant tastes
- taste modulation of single additive solutions (separate caffeine, malic acid, and sucralose solutions at mega-dose levels, listed as biologically-produced 1,3-propanediol): did not positively modulate the taste or mask the bitter, off, or sour tastes; also recorded: neither propylene glycol, nor biologically-produced 1,3-propanediol modulated the taste
- taste modulation of two additive solutions (solutions containing a blend of two taste additives): most positive taste modulation effect
- overall tasting quality vs propylene glycol (PDO samples tasted before PG samples, similar levels): better overall tasting quality
- overall tasting quality vs propylene glycol [1]: no tasting quality differences
- tasting qualities vs propylene glycol [1]: tasted marginally better than the propylene glycol-containing samples
- tasting qualities vs propylene glycol (direct comparison of PDO to PG): better tasting qualities than those with propylene glycol
